Counter-ions that a name gives are not always drawn. Like-named read-outs stand apart in the source and are kept apart here.
Columns and labels:
[1] = biological target: BIR2 domain of XIAP (Homo sapiens (Human), UniProt P98170, C202A/C213G); experiment: TR-FRET assay for BIR2 (inhibition of binding of XIAP BIR2 domain to SMAC-derived Peptide A); details: 6x His-tagged BIR2 domain (aa 124-240 of XIAP) 10 nM, Peptide A 20 nM, TR-FRET; read-out: IC50 BIR2
[2] = biological target: BIR3 domain of XIAP (Homo sapiens (Human), UniProt P98170); experiment: TR-FRET assay for BIR3 (inhibition of binding of XIAP BIR3 domain to SMAC-derived Peptide A)
[3] = 6x His-tagged BIR3 domain (aa 241-356 of XIAP) 10 nM, Peptide A 20 nM, TR-FRET

Sequence of BIR3 domain of XIAP (P98170 241-356 with tags or gaps limits assumed): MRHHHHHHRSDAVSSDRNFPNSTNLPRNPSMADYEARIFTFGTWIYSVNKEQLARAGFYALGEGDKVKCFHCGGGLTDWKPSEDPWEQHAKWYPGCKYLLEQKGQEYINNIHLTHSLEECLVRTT
Sequence of BIR2 domain of XIAP (P98170 124-240 with tags or gaps C202A/C213G limits assumed): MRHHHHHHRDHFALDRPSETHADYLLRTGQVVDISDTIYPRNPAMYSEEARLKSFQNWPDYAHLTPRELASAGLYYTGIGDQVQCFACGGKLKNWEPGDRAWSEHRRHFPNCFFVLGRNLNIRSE

SMILES	IC50 [2, 3] [nM]	IC50 [1] [nM]	IC50 [2] [nM]
CN[C@@H](C)C(=O)N[C@H]1CN(C(=O)CN2CCN(C)CC2)c2ccccc2N(Cc2c(C)ccc3ccccc23)C1=O [Example 12, (S)-2-methylamino-N—{(S)-1(2-methyl-naphthalen-1-ylmethyl)-5-[2-(4-methyl-piperazin-1-yl)-acetyl]-2-oxo-2,3,4,5-tetrahydro-1H-benzo[b][1,4]diazepin-3-yl}-propionamide hydrochloride]	> 54800	820	–
CN[C@@H](C)C(=O)N[C@H]1CN(C(=O)c2ccc(C(C)=O)cc2)c2ccccc2N(Cc2c(C)ccc3ccccc23)C1=O [Example 13f]	> 54800	54	–
CN[C@@H](C)C(=O)N[C@H]1CN(C(=O)CCC(=O)O)c2ccccc2N(Cc2c(C)ccc3ccccc23)C1=O [Example 16, 4-[(S)-3-((S)-2-Methylamino-propionylamino)-5-(2-methyl-naphthalen-1-ylmethyl)-4-oxo-2,3,4,5-tetrahydro-benzo[b][1,4]diazepin-1-yl]-4-oxo-butyric acid hydrochloride]	> 54800	126	–
CNC(=O)N1C[C@H](NC(=O)[C@H](C)NC)C(=O)N(Cc2c(C)ccc3ccccc23)c2ccccc21 [Example 17, (S)-3-((S)-2-Methylamino-propionylamino)-5-(2-methyl-naphthalen-1-ylmethyl)-4-oxo-2,3,4,5-tetrahydro-benzo[b][1,4]diazepine-1-carboxylic acid methylamide hydrochloride]	–	1430	> 54800
CN[C@@H](C)C(=O)N[C@H]1CN(S(=O)(=O)CS(C)(=O)=O)c2ccccc2N(Cc2c(C)ccc3ccccc23)C1=O [Example 18, (S)—N—[(S)-5-Methanesulfonylmethanesulfonyl-1-(2-methyl-naphthalen-1-ylmethyl)-2-oxo-2,3,4,5-tetrahydro-1H-benzo[b][1,4]diazepin-3-yl]-2-methylamino-propionamide trifluoroacetate]	> 54800	590	–
CN[C@@H](C)C(=O)N[C@H]1CN(S(C)(=O)=O)c2ccccc2N(Cc2c(C)ccc3ccccc23)C1=O [Example 19, (S)—N—[(S)-5-methanesulfonyl-1-(2-methyl-naphthalen-1-ylmethyl)-2-oxo-2,3,4,5-tetrahydro-1H-benzo[b][1,4]diazepin-3-yl]-2-methylamino-propionamide hydrochloride]	> 54800	620	–

Second part, led by results:

IC50 [2, 3] [nM]	SMILES	IC50 [1] [nM]	IC50 [2] [nM]
> 54800	CN[C@@H](C)C(=O)N[C@H]1CN(C(=O)c2ccc(S(C)(=O)=O)cc2)c2ccccc2N(Cc2c(C)ccc3ccccc23)C1=O [Example 13c]	119	–
> 54800	CN[C@@H](C)C(=O)N[C@H]1CN(C(=O)CCCCC(=O)OC)c2ccccc2N(Cc2c(C)ccc3ccccc23)C1=O [Example 13e]	308	–
> 54800	CN[C@@H](C)C(=O)N[C@H]1CN(C(=O)c2cc(OC)c(OC)c(OC)c2)c2ccccc2N(Cc2c(C)ccc3ccccc23)C1=O [Example 13g]	481	–
46700	CN[C@@H](C)C(=O)N[C@H]1CN(C(=O)CCNC(=O)OCC2c3ccccc3-c3ccccc32)c2ccccc2N(Cc2c(OC)ccc3cc(C(=O)OC)ccc23)C1=O [Example 13r]	17	–
> 54800	CN[C@@H](C)C(=O)N[C@H]1CN(C(=O)OC)c2ccccc2N(Cc2c(C)ccc3ccccc23)C1=O [Example 20, ((S)-3-((S)-2-Methylamino-propionylamino)-5-(2-methyl-naphthalen-1-ylmethyl)-4-oxo-2,3,4,5-tetrahydro-benzo[b][1,4]diazepine-1-carboxylic acid methyl ester hydrochloride]	588	–
7420	CN[C@@H](C)C(=O)N[C@H]1CN(C(=O)c2ccc(C(C)=O)cc2)c2ccccc2N(CCc2cccc3ccccc23)C1=O [Example 40, (S)—N—((S)-5-(4-acetylbenzoyl)-1-(2-(naphthalen-1-yl)ethyl)-2-oxo-2,3,4,5-tetrahydro-1H-benzo[b][1,4]diazepin-3-yl)-2-(methylamino)propanamide]	173	–

Source: patent publication US10053431B2, “Tetrahydro-benzodiazepinones” (priority 2013, dated 2018)
